Test results from patent US20230201221A1, “USE OF TERPENOIDS IN THE TREATMENT OR PREVENTION OF FIBROTIC DISEASES” (ARJIL BIOTECH HOLDING COMPANY LIMITED, priority 2020, published 2023).

Assays:
Type in all cases: in vivo
C57BL/6 mice [1] = test: Cisplatin-induced renal injury in mice: serum CRE and BUN; settings: extracts at 1000 mg/kg; compared to cisplatin-stimulated group, p<0.001
Procedure: Determination of biochemical parameters Serum creatinine and serum urea are assessed using colorimetric kits according to manufacturer's instructions. Kits of the former markers are purchased from (HUMAN Diagnostics Worldwide, Magdeburg, Germany) with a chemical analyzer (Roche Diagnostics, Cobas Mira Plus, Rotkreuz, Switzerland).
(§1) Seven-to-eight-week-old male C57BL/6 mice are obtained from the BioLASCO Taiwan Co., Ltd. (Taipei, Taiwan). The animals are housed in Plexiglas cages at a constant temperature of 22±1° C. and a relative humidity of 55±5% on a 12 h dark-light cycle for at least 2 weeks before the experiment. Animals are provided food and water ad libitum. All experimental procedures are performed according to the guidelines of the Institutional Animal Ethics Committee, and the protocol is approved by the Committee for the Purpose of Control and Supervision of Experiments on Animals.
Renal fibrosis is induced via multiple injections of low-dose cisplatin. Intraperitoneal injections of cisplatin (5 mg/kg/injection; P4394, Sigma-Aldrich, St Louis, Mo.) are performed at 0, 1, and 3 weeks, for a total of 3 injections. Mice are sacrificed at 6 weeks after the first dose of cisplatin (n=6). To analyze the effects of samples, mice are given daily intraperitoneal injections for 7 days, starting from 4 weeks after first dose of cisplatin, and sacrificed at […] (n=6).

C57BL/6 mice [2] = test: Cisplatin-induced renal injury in mice: kidney histopathology (H&E); settings: extract at 1000 mg/kg; cisplatin-stimulated mice
Source text: Kidney histopathology The anterior portion of the […] from each mouse is fixed in 10% formaldehyde phosphate buffer, embedded in paraffin, cut into 5 μm sections, and then treated with an hematoxylin and eosin (H&E) stain for histological examination under the light microscopy (Nikon, ECLIPSE, TS100, Tokyo, Japan). Images are captured with a digital camera (NIS-Elements D 2.30, SP4, Build 387) at an original magnification of 400×.
as §1
Renal fibrosis is induced via multiple injections of low-dose cisplatin. Intraperitoneal injections of cisplatin (5 mg/kg/injection; P4394, Sigma-Aldrich, St Louis, Mo.) are performed at 0, 1, and 3 weeks, for a total of 3 injections. Mice are sacrificed at 6 weeks after the first dose of cisplatin (n=6). […]

SD rats = test: CCl4-induced chronic liver fibrosis in rat
Procedure: Blood samples are collected at week 0, 2, 4, 6, and 8. The animals are sacrificed at the end of the 8-week for histopathological examinations. FIGS. 7A, 7B, 7C depict delta weight, liver weight, and liver/body-weight ratio, respectively.
The level of clinical biochemistry such as aspartate aminotransferase (AST), alanine aminotransferase (ALT), is evaluated to determine the enzymatic activities of the livers of the control groups and the experimental groups (shown in FIGS. 8A-8C).

BALB/c mice = test: Con A (concanavalin A) induced acute hepatitis in BALB/c mice; settings: mean ± SEM
Procedure: Male BALB/c mice (7-9 weeks old) were purchased from BioLASCO Taiwan Co., Ltd or National Laboratory Animal Center (NLAC, Taiwan). Animals are housed five per cage with food and water provided ad libitum throughout the experiments. Room temperature is maintained at 23±2° C. with an alternating 12 h light dark cycle. Animals are acclimatized for one week to minimize the effect of stress before the experiments. All experimental protocols involving animals and their care are approved by the Institutional Animal Care and Use Committee (IACUC) in ITRI (ITRI-IACUC-2018-041 and ITRI-IACUC-2018-050; accredited by AAALAC) and are carried out according to the regulations of the Council of Agriculture, Taiwan.
Con A is dissolved in pyrogen free saline at a concentration of 3 mg/mL and intravenously injected at a dose of 15 mg/kg or 20 mg/kg of body weight to induce hepatitis. […] Blood and liver tissues are collected 24 h after Con A treatment (FIG. 11). Serum are stored at […] until analysis.
To assess the level of hepatocellular injury after Con A treatment, serum GPT and GOT levels are measured by Fuji Dri-Chem slides (Fuji, Japan). The serum of the same group is pooled for cytokine assay. Cytokine levels are measured by ProcartaPlex™ immunoassays kit according to manufacturer's instructions. Data are presented as mean f SEM. T test is used to analyze the differences between drug and vehicle treated groups. The difference is regarded statistically significant when p value is less than 0.05.
Liver tissues are fixed in 10% phosphate buffered formaldehyde, embedded in paraffin, and stained with hematoxylin and eosin (H&E) in order to confirm tissue lesions. Tissue lesions are examined microscopically by a veterinary pathologist at BioLASCO Taiwan Co., Ltd. The criteria of severity grading system for all microscopic lesions are graded from 0 to 4 as follows: 0=none; 1=individual cell necrosis; 2=≤30% lobular necrosis; 3=≤60% lobular necrosis; 4=>60% lobular necrosis.

[3] = system: TNF-α, IL-1β, IL-6 and TGF-β; test: Bleomycin-induced pulmonary fibrosis in mice: pro-inflammatory cytokines by ELISA; settings: extract 1.0 g/kg; BH, DH 50 mg/kg; after BLM challenge; p<0.001
Procedure: Mice were divided into fifth groups with 5 animals per group according to body weight: control group, BLM group, BLM+DEX group (7.5 mg/kg), BLM+ACH dosage group (50 mg/kg), and BLM+ACM dosage group (25 mg/kg), BLM+ACH dosage group (50 mg/kg), and BLM+ACM dosage group (25 mg/kg) BLM+AH dosage group (50 mg/kg), and BLM+AM dosage group (25 mg/kg) BLM+BH dosage group (50 mg/kg), and BLM+BM dosage group (25 mg/kg) BLM+CH dosage group (50 mg/kg), and BLM+CM dosage group (25 mg/kg) BLM+DH dosage group (50 mg/kg), and BLM+DM dosage group (25 mg/kg) BLM+EH dosage group (50 mg/kg), and BLM+EM dosage group (25 mg/kg) BLM. Pulmonary fibrosis (PF) was established in mice via a single intratracheal administration of BLM at 7.5 mg/kg mg/kg body weight. Different doses of samples were intragastrically administered daily for 21 days after BLM injury, and DEX was used as the positive control. Control and model groups received an equal volume of vehicle (0.9% NaCl) using the same schedule and route of administration. […]
The serum concentration of the pro-inflammatory cytokines (i.e. tumor necrosis factor-α (TNF-α), interleukin-6 (IL-6), and IL-1β) in serum were assessed with relevant enzyme-linked immunosorbent assay (ELISA) kits (Biosource International Inc., Sunnyvale, Calif., USA), based on the manufacturer's instructions.

MPO = test: Bleomycin-induced pulmonary fibrosis in mice: lung myeloperoxidase (MPO) assay; settings: compared with BLM group, p<0.001
Procedure: Mice were divided into fifth groups with 5 animals per group according to body weight: control group, BLM group, BLM+DEX group (7.5 mg/kg), BLM+ACH dosage group (50 mg/kg), and BLM+ACM dosage group (25 mg/kg), BLM+ACH dosage group (50 mg/kg), and BLM+ACM dosage group (25 mg/kg) BLM+AH dosage group (50 mg/kg), and BLM+AM dosage group (25 mg/kg) BLM+BH dosage group (50 mg/kg), and BLM+BM dosage group (25 mg/kg) BLM+CH dosage group (50 mg/kg), and BLM+CM dosage group (25 mg/kg) BLM+DH dosage group (50 mg/kg), and BLM+DM dosage group (25 mg/kg) BLM+EH dosage group (50 mg/kg), and BLM+EM dosage group (25 mg/kg) BLM. Pulmonary fibrosis (PF) was established in mice via a single intratracheal administration of BLM at 7.5 mg/kg mg/kg body weight. Different doses of samples were intragastrically administered daily for 21 days after BLM injury, and DEX was used as the positive control. Control and model groups received an equal volume of vehicle (0.9% NaCl) using the same schedule and route of administration.
The pulmonary MPO activity was a reliable index for estimating the infiltration of inflammatory cells in lungs. The lung tissues were homogenized and the MPO levels were detected with the kits according to manufacturer's instruction.

C=C1C(=O)O[C@H]2/C=C(\C)CC3C=C(CC/C=C(\C)CC[C@H]12)C(=O)O3 (stereo partly shown) [AR100-DS1, Ovatodiolide]
renal protection: normalization of serum CRE and BUN (C57BL/6 mice [1]): significant renal protection effect | necrosis and inflammatory infiltrating cells in the kidney tissue (H&E) (C57BL/6 mice [2]): significantly improved necrosis and inflammatory infiltrating cells in the kidney tissue | serum AST and ALT level (SD rats; 50 mg/kg, W6 and W8, compared with the vehicle group): less AST and ALT increases | liver appearance (SD rats; 50 mg/kg, after 8 weeks of CCl4 induction): smooth surface without atrophy and sclerosis | overall effect on CCl4-induced liver injury (SD rats; 8 weeks of CCl4 induction): potential to partially repair CCl4-induced liver injury | serum GPT level (BALB/c mice; 50 mg/kg oral, 24 h after 15 mg/kg Con A, vehicle 368±107, p<0.05): 109±25 U/L | serum GOT level (BALB/c mice; 50 mg/kg oral, 24 h after 15 mg/kg Con A, vehicle 410±56): 261±45 U/L | liver necrosis histopathological score (BALB/c mice; graded 0 to 4, 24 h after Con A, vehicle 1.4±0.2): 0.2±0.2 | TNF-α, IL-1β, IL-6 and TGF-β production [3]: improved TNF-α, IL-1β, IL-6 and TGF-β production | lung MPO activity (MPO): evidently suppressed the MPO activities
